The values that follow are results of earlier work, collected in patent US20030124112A1, “Use of a lacrophyl preparation in eye drops containing therpeutically active compounds” (priority 2000, published 2003).

One data set deals with tear lysozyme. The note with it: dropped in the eye, glaucome.
For data set [1] the following is noted: 0.0001% benzalkonium-chloride, in vitro.

In the case of `CC(C)(C)NCC(O)COc1cccc2c1CCC(=O)N2` (stereo not drawn) [cartelol], in the data set on tear lysozyme, the “effect on amount of tear lysozyme” value is reported as “decrease of the amount of tear lysozyme”.

On to `CC(C)(C)NC[C@H](O)COc1nsnc1N1CCOCC1` [timolol], for which, in the data set on tear lysozyme, the “effect on amount of tear lysozyme” value is on record as “decrease of the amount of tear lysozyme”.

For benzalkonium-chloride, the effect on cells entry in data set [1] is given as “causes cell death”.
